Data reported in US12698289B2, “Solid forms of pharmaceutically acceptable salts of (S)-(2-ethyl-5-fluoro-4-hydroxyphenyl)-1H-indazol-3-yl)-4,6-dihydropyrrolo[3,4-d]imidazol-5(1H)-yl)(3-hydroxypyrrolidin-1-yl)methanone as JAK inhibitors” (HENAN MEDINNO PHARMACEUTICAL TECHNOLOGY CO., LTD., priority 2019, dated 2026).

System: human T cells
Test: IL-2 induced human T cell proliferation assay (Celltiter Glo)
Settings: HT, 72 h, read-out: IC50 (nM), human T cell proliferation
Description: The purpose of this example is to assay the activity of the compound in the JAK cell activity assay-human T cell proliferation assay.

For `CCc1cc(O)c(F)cc1-c1ccc2c(-c3nc4c([nH]3)CN(C(=O)N3CC[C@H](O)C3)C4)n[nH]c2c1` [Compound of formula (I), (S)-(2-(6-(2-ethyl-5-fluoro-4-hydroxyphenyl)-1H-indazol-3-yl)-4,6-dihydropyrrolo[3,4-d]imidazol-5-(1H)-yl) (3-hydroxy pyrrolidin-1-yl) ketone], which IC50 is on record?
The IC50 was 13 nM.
